Experimental data as given in US20090018212A1, “METHODS OF RELIEVING STRESS” (Neuroscent Pty Ltd., priority 2005, published 2009).

Assays:
[1] = test system: sympathetic neurotransmission; test: Sympathetic neurotransmission in isolated vasa differentia after chronic stress of social deprivation and predator exposure; type: in vivo; conditions: mice, social deprivation and presence of predators 10 to 12 days; odour diluted in triethyl citrate
Description: The effects of odours on experimental animals exposed to stressors that cause chronic stress was assessed. Mice were divided into two groups, a control group exposed to minimal stress and a group exposed to severe stress by concurrent isolation and exposure to a predator. Each group was divided into sub-groups, one not exposed to any odour (control), one exposed to triethyl citrate vehicle (control), and the other groups exposed to an odour or a mixture of odours selected from cis-2-hexen-1-ol, trans-3-hexen-1-ol, trans-2-hexen-1-ol, cis-3-hexen-1-ol, trans-2-hexenal and α-pinene. Each odour compound was diluted (0.01 to 0.05% volume) with triethyl citrate. The solutions (0.5 mL) were placed on filter paper strips and placed within 30 cm of the animal cage. The response to stress was assessed using any or a combination of telemetry measurements, post-mortem electrophysiological studies and biochemical assays of blood samples.
Isolated vasa differentia were used to assess the effects of prolonged exposure to stress and its attenuation by odours. Following exposure of the mice to one of the stressors with or without odour, the level of neurotransmission from sympathetic varicosities was examined using standard focal extracellular recording methods (Lavidis and Bennett, 1992, 1993a, 1993b; D'Arbe et al., 2002). […] The extent of the increase reflects the level of stress the animal was exposed to during the previous 6-14 days (D'Arbe et al., 1999, D'Arbe et al., 2002).
Mice were exposed to two stressors concurrently, social deprivation and the presence of predators (rats in separate cages) for 10 to 12 days with or without the following odours or combination of odours, cis-2-hexen-1-ol, trans-2-hexen-1-ol, trans-3-hexen-1-ol, trans-2-hexenal, cis-3-hexen-1-ol, α-pinene and a combination of cis-3-hexen-1-ol and trans-2-hexenal. Two controls were used: mice not exposed to stress and mice exposed to stress together with triethyl citrate vehicle. The mice were monitored for up to 4 days after the stressors were removed.
Mice were placed in cages with one mouse per cage (social deprivation) in a room that contained cages with rats (predators) without odours (control). […] Box plots of the excitatory junction currents (EJC) obtained by electrophysiological methods are shown in FIG. 2 (control) and FIG. 3 (treated) and indicate the maximum EJC amplitude (Max), the distribution of 3rd quartiles (Q3), the median, the distribution of the 1st quartiles (Q1) and the distribution of the means. The data is from 16 animals from each treatment with at least 40 recording sites.

[2] = test system: smooth muscle of mouse vas deferens; test: Organ bath safety test: success rate of transmission after application of the chemicals; type: cell-based; conditions: 1.0% vol; for function of smooth muscle (success rate of transmission): evaluated over 40 minutes
Description: Safety data for the components of the combination of the invention have been obtained by applying the chemicals to smooth muscle in organ bath experiments. The mouse vas deferens was isolated and placed in an electrophysiological organ bath. Extracellular recording of transmitter release from sympathetic varicosities was recorded before and after both application of each of the chemicals CH, TH or ap. The effect (“success rate”) of each of the chemicals was evaluated over 40 minutes. Success rate was measured as (number of successful transmissions/number of nerve stimulations)×100. Following this measurement, the chemicals were washed out.

humans = conditions: cited from earlier work
rats = conditions: cited from earlier work

## CC/C=C\CCO [cis-3-hexen-1-ol]
[1]
  effectiveness of the odour or odour combination from most effective to least effective (mean excitatory junction potentials, FIG. 1): cis-3-hexen-1-ol>trans-2-hexenal
[2]
  function of smooth muscle (success rate of transmission): did not significantly affect

## CC/C=C/CCO [trans-3-hexen-1-ol, reference compound]
[1]
  effectiveness of the odour or odour combination from most effective to least effective (mean excitatory junction potentials, FIG. 1): trans-3-hexen-1-ol>trans-2-hexen-1-ol

## CC1=CCC2CC1C2(C)C (stereo not drawn) [α-pinene]
humans
  hypnotic effect: hypnotic effect
[1]
  effectiveness of the odour or odour combination from most effective to least effective (mean excitatory junction potentials, FIG. 1): α-pinene>cis-2-hexen-1-ol
[2]
  function of smooth muscle (success rate of transmission): did not significantly affect
rats
  resting period: prolong the resting period

## CCC/C=C\CO [cis-2-hexen-1-ol, reference compound]
[1]
  effectiveness of the odour or odour combination from most effective to least effective (mean excitatory junction potentials, FIG. 1): cis-2-hexen-1-ol>trans-3-hexen-1-ol

## CCC/C=C/C=O [trans-2-hexenal]
[1]
  effectiveness of the odour or odour combination from most effective to least effective (mean excitatory junction potentials, FIG. 1): trans-2-hexenal>α-pinene
[2]
  effect on the smooth muscle at the high concentration used: relaxed smooth muscle cells
  function of smooth muscle (success rate of transmission): did not significantly affect

## CCC/C=C/CO [trans-2-hexen-1-ol, reference compound]
[1]
  effectiveness of the odour or odour combination from most effective to least effective (mean excitatory junction potentials, FIG. 1): least effective
